The assay deals with P388 leukemia ip, CD2F1 mice, survival T/C. As to the kind of experiment: NCI In Vivo Anticancer Drug Screen. Data for tumor model P388 Leukemia (intraperitoneal) in CD2F1 (CDF1) mice. The conditions noted are these: endpoint: median survival time, higher = longer survival. In outline:
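Mice carrying the transplanted tumor received test compound or vehicle. Survival was recorded in each group, and the value is the treated-group measurement divided by that of the vehicle-treated control group.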

Where [1] appears, read: dose: 60.0 mg/kg/injection, schedule: Q01DX005 (ip), vehicle: saline with Tween-80.
The mark [2] stands for this setting: dose: 120.0 mg/kg/injection, schedule: Q01DX005 (ip), vehicle: saline with Tween-80.
The mark [3] stands for this setting: dose: 50.0 mg/kg/injection, schedule: Q01DX005 (ip), vehicle: saline with Tween-80.
Setting [4] is: dose: 50.0 mg/kg/injection, schedule: Q01DX009 (ip), vehicle: Klucel (hydroxypropylcellulose) (HPC).
Where [5] appears, read: dose: 100.0 mg/kg/injection, schedule: Q01DX009 (ip), vehicle: Klucel (hydroxypropylcellulose) (HPC).
[6] abbreviates: dose: 100.0 mg/kg/injection, schedule: Q01DX009 (ip), vehicle: saline.
Setting [7] is: dose: 200.0 mg/kg/injection, schedule: Q01DX009 (ip), vehicle: saline.
The mark [8] stands for this setting: dose: 50.0 mg/kg/injection, schedule: Q01DX009 (ip), vehicle: saline with Tween-80.
Setting [9] is: dose: 100.0 mg/kg/injection, schedule: Q01DX009 (ip), vehicle: saline with Tween-80.
The mark [10] stands for this setting: dose: 50.0 mg/kg/injection, schedule: Q01DX009 (ip), vehicle: saline.
Setting [11] is: dose: 60.0 mg/kg/injection, schedule: Q01DX005 (ip), vehicle: saline.
Where [12] appears, read: dose: 120.0 mg/kg/injection, schedule: Q01DX005 (ip), vehicle: saline.
Where [13] appears, read: dose: 240.0 mg/kg/injection, schedule: Q01DX005 (ip), vehicle: saline.
Setting [14] is: dose: 50.0 mg/kg/injection, schedule: Q01DX005 (ip), vehicle: Klucel (hydroxypropylcellulose) (HPC).
The mark [15] stands for this setting: dose: 100.0 mg/kg/injection, schedule: Q01DX005 (ip), vehicle: Klucel (hydroxypropylcellulose) (HPC).

Data on 24 molecules can be found in PubChem BioAssay AID330 (DTP/NCI, 2004).

Several values for one entry are separate records, joined by “and”; a condition that tells them apart may be missing. Equal values may be shown once. Toxic doses and inconclusive results are not listed.

Take `COc1ccc2c(=O)c(-c3cc4c(cc3OC)OCO4)coc2c1`: the T/C is, setting by setting: (dose: 8.0 mg/kg/injection, schedule: Q01DX005 (ip), vehicle: Klucel (hydroxypropylcellulose) (HPC)) 88 % of control; (dose: 16.0 mg/kg/injection, schedule: Q01DX005 (ip), vehicle: Klucel (hydroxypropylcellulose) (HPC)) 86 % of control.
Take `CSc1nc(NC2OCC(O)C(O)C2O)c(C=O)c(=O)n1C` (configuration not stated): the T/C is, setting by setting: under setting [1], 96 % of control; under setting [2], 97 % of control.
Turning to `FC(F)(F)C(Cl)(c1ccc(Cl)cc1)c1ccc(Cl)cc1`, the T/C is 96 % of control (dose: 50.0 mg/kg/injection, schedule: Q01DX005 (sc), vehicle: olive oil, sesame oil, peanut oil); 96 % of control (dose: 100.0 mg/kg/injection, schedule: Q01DX005 (sc), vehicle: olive oil, sesame oil, peanut oil); 95 % of control (dose: 200.0 mg/kg/injection, schedule: Q01DX005 (sc), vehicle: olive oil, sesame oil, peanut oil); 100 % of control (dose: 400.0 mg/kg/injection, schedule: Q01DX005 (sc), vehicle: olive oil, sesame oil, peanut oil).
With `CN(C)/C=N\c1ncnc2c1c(C#N)cn2C1OC(CO)C(O)C1O` (configuration not stated), the T/C (dose: 7.5 mg/kg/injection, schedule: Q01DX005 (ip), vehicle: Klucel (hydroxypropylcellulose) (HPC)) was 104 % of control and 112 % of control; the T/C (dose: 15.0 mg/kg/injection, schedule: Q01DX005 (ip), vehicle: Klucel (hydroxypropylcellulose) (HPC)) is 120 % of control and 121 % of control.
Regarding `ClC1=CC=c2ccc3c(c2[N-]1)[N-]C(Cl)=CC=3.ClC1=CC=c2ccc3c(c2[N-]1)[N-]C(Cl)=CC=3.O=[N+]([O-])O.[Cu+]`, the T/C was 101 % of control (dose: 6.25 mg/kg/injection, schedule: Q04DX002 (ip), vehicle: suspension in saline); 93 % of control (dose: 12.5 mg/kg/injection, schedule: Q04DX002 (ip), vehicle: suspension in saline); 98 % of control (dose: 25.0 mg/kg/injection, schedule: Q04DX002 (ip), vehicle: suspension in saline).
On to `COc1cccc(-n2c(=S)[nH]c3ccccc3c2=O)c1`, for which the T/C under setting [3] was 93 % of control; the T/C (dose: 100.0 mg/kg/injection, schedule: Q01DX005 (ip), vehicle: saline with Tween-80) was 87 % of control; the T/C (dose: 200.0 mg/kg/injection, schedule: Q01DX005 (ip), vehicle: saline with Tween-80) is 89 % of control.
For the molecule `Cc1ccc(SSc2nnnn2C)cc1`, the T/C is 100 % of control under setting [4] and 88 % of control under setting [5].
With `CCCC(C(=O)OC(C)CN1C(C)CCC1C)C1CCCC1` (configuration not stated), the T/C runs as follows: under setting [6], 112 % of control; under setting [7], 103 % of control; (dose: 400.0 mg/kg/injection, schedule: Q01DX009 (ip), vehicle: saline) 108 % of control.
Turning to `NC(Cc1ccc(O)cc1)c1nn[nH]n1` (configuration not stated), the T/C runs as follows: (dose: 25.0 mg/kg/injection, schedule: Q01DX009 (ip), vehicle: saline with Tween-80) 114 % of control; under setting [8], 100 % of control; under setting [9], 99 % of control.
For `C1CC[N+]2(CC1)CCCCC2`, the T/C reads like this: (dose: 6.25 mg/kg/injection, schedule: Q01DX009 (ip), vehicle: saline) 100 % of control; (dose: 12.5 mg/kg/injection, schedule: Q01DX009 (ip), vehicle: saline) 100 % of control; (dose: 25.0 mg/kg/injection, schedule: Q01DX009 (ip), vehicle: saline) 108 % of control; under setting [10], 98 % of control.
As for `CN(C(=O)C(=S)c1ccccc1)c1ccccc1`, the T/C by setting is: (dose: 100.0 mg/kg/injection, schedule: Q04DX002 (ip), vehicle: saline) 104 % of control; (dose: 200.0 mg/kg/injection, schedule: Q04DX002 (ip), vehicle: saline) 119 % of control; (dose: 400.0 mg/kg/injection, schedule: Q04DX002 (ip), vehicle: saline) 117 % of control.
For the molecule `CNC1CCCCC1[N+](C)(C)C` (configuration not stated), the T/C reads like this: (dose: 5.0 mg/kg/injection, schedule: Q01DX009 (ip), vehicle: saline sonified) 95 % of control; (dose: 10.0 mg/kg/injection, schedule: Q01DX009 (ip), vehicle: saline sonified) 100 % of control; (dose: 20.0 mg/kg/injection, schedule: Q01DX009 (ip), vehicle: saline sonified) 100 % of control.
For `CCOC(=O)c1c[nH]n(Cc2ccccc2)c1=O`, the T/C was 100 % of control under setting [1]; 100 % of control under setting [2]; 95 % of control (dose: 240.0 mg/kg/injection, schedule: Q01DX005 (ip), vehicle: saline with Tween-80).
In the case of `CN(C)NC=O`, the T/C is, setting by setting: under setting [11], 102 % of control; under setting [12], 102 % of control; under setting [13], 114 % of control.
Regarding `Nc1ccc(Cn2ccc3c4c(N)nc(N)nc4ccc32)cc1`, the T/C is, setting by setting: (dose: 1.25 mg/kg/injection, schedule: Q01DX009 (ip), vehicle: saline with Tween-80) 106 % of control and 117 % of control; (dose: 2.5 mg/kg/injection, schedule: Q01DX009 (ip), vehicle: saline with Tween-80) 110 % of control and 111 % of control and 112 % of control; (dose: 5.0 mg/kg/injection, schedule: Q01DX009 (ip), vehicle: saline with Tween-80) 121 % of control; (dose: 10.0 mg/kg/injection, schedule: Q01DX009 (ip), vehicle: saline with Tween-80) 151 % of control and 186 % of control; (dose: 20.0 mg/kg/injection, schedule: Q01DX009 (ip), vehicle: saline with Tween-80) 182 % of control; (dose: 40.0 mg/kg/injection, schedule: Q01DX009 (ip), vehicle: saline with Tween-80) 105 % of control.
As to `COc1c2ccoc2cc2oc(=O)ccc12`, the T/C is 102 % of control under setting [14]; 96 % of control under setting [15]; 93 % of control (dose: 200.0 mg/kg/injection, schedule: Q01DX005 (ip), vehicle: Klucel (hydroxypropylcellulose) (HPC)).
As to `CSC(=S)N/N=C(\C)c1ccc[nH]1`, the T/C under setting [14] is 99 % of control and the T/C under setting [15] was 97 % of control.
For the molecule `CC(=O)OC1C(=O)OCC1C(=O)N1Cc2cc3ccccc3nc2C1` (configuration not stated), the T/C is 104 % of control (dose: 100.0 mg/kg/injection, schedule: Q01DX001 (ip), vehicle: saline with Tween-80); 101 % of control (dose: 200.0 mg/kg/injection, schedule: Q01DX001 (ip), vehicle: saline with Tween-80); 105 % of control (dose: 400.0 mg/kg/injection, schedule: Q01DX001 (ip), vehicle: saline with Tween-80).
For `CC12CCC(=O)C=C1C=CC1C2CCC2(C)C1CCC21CCC(=O)O1` (configuration not stated), the T/C by setting is: under setting [8], 94 % of control; under setting [9], 91 % of control; (dose: 200.0 mg/kg/injection, schedule: Q01DX009 (ip), vehicle: saline with Tween-80) 97 % of control.
For `CC(=O)C(C)(NCc1ccccc1)c1ccccc1` (configuration not stated), the T/C under setting [4] was 101 % of control; the T/C under setting [5] is 108 % of control; the T/C (dose: 200.0 mg/kg/injection, schedule: Q01DX009 (ip), vehicle: Klucel (hydroxypropylcellulose) (HPC)) was 108 % of control; the T/C (dose: 400.0 mg/kg/injection, schedule: Q01DX009 (ip), vehicle: Klucel (hydroxypropylcellulose) (HPC)) was 90 % of control.
For `O=C(S)CC(O)(CCl)c1ccc(-c2ccccc2)cc1` (configuration not stated), the T/C was 113 % of control (dose: 100.0 mg/kg/injection, schedule: Q04DX002 (ip), vehicle: Klucel (hydroxypropylcellulose) (HPC)) and 101 % of control (dose: 200.0 mg/kg/injection, schedule: Q04DX002 (ip), vehicle: Klucel (hydroxypropylcellulose) (HPC)).
Consider `CC1CC(C)C(C)C(C)(CN(C)C)C1` (configuration not stated), for which the T/C (dose: 12.5 mg/kg/injection, schedule: Q01DX005 (ip), vehicle: saline with Tween-80) is 102 % of control; the T/C (dose: 25.0 mg/kg/injection, schedule: Q01DX005 (ip), vehicle: saline with Tween-80) is 98 % of control; the T/C under setting [3] is 100 % of control and 96 % of control.
For the molecule `O=c1cc[nH]c2ccccc12`, the T/C was 96 % of control under setting [10], 92 % of control under setting [6] and 97 % of control under setting [7].
As to `O=C1C=C(n2ccccc2=O)CCC1`, the T/C is 93 % of control under setting [11], 93 % of control under setting [12] and 102 % of control under setting [13].
